According to ChEMBL document CHEMBL4689842, “EUbOPEN Chemogenomics Library wave 1” (2021):

What was measured:
Format in all cases: toxicity, cell-based
Fibroblast = assay: Incucyte cell viability with human fibroblast; conditions: 10 µM, compound concentration 10 uM
U2OS = assay: Incucyte cell viability with U2OS; conditions: human, 10 µM, compound concentration 10 uM
HEK-293T = assay: Incucyte cell viability with HEK293T; conditions: human, 10 µM, compound concentration 10 uM
[1] = 0 h, replicate number 1, timepoint 0 hours
[2] = 0 h, replicate number 2, timepoint 0 hours
[3] = 6 h, replicate number 1, timepoint 6 hours
[4] = 12 h, replicate number 1, timepoint 12 hours
[5] = 12 h, replicate number 2, timepoint 12 hours
[6] = 18 h, replicate number 1, timepoint 18 hours
[7] = 18 h, replicate number 2, timepoint 18 hours
[8] = 24 h, replicate number 1, timepoint 24 hours
[9] = 24 h, replicate number 2, timepoint 24 hours
[10] = 6 h, replicate number 2, timepoint 6 hours

Measured: Growth Rate
Note: filed as whole numbers so only -1 and 0 and 1 occur.

O=C(O)[C@@H]1[C@@H](Cn2nnc3ccccc3c2=O)CC[C@H]1C(=O)c1ccc(OCCC2CCOCC2)cc1 [BAY-694]
0: Fibroblast; [1] | Fibroblast; [3] | Fibroblast; [5] | Fibroblast; [7] | Fibroblast; [8] | U2OS; [1] | U2OS; [3] | U2OS; [6] | U2OS; [9] | HEK-293T; [1] | HEK-293T; [3] | HEK-293T; [5]
1: Fibroblast; [2] | Fibroblast; [4] | Fibroblast; [6] | Fibroblast; [9] | U2OS; [4] | U2OS; [8] | HEK-293T; [2] | HEK-293T; [10] | HEK-293T; [6] | HEK-293T; [8]

O=C(NCc1ncc(C(F)(F)F)cc1Cl)c1ccc2c(c1)C1(CCS(=O)(=O)CC1)[C@H](C1CC1)N2S(=O)(=O)c1ccc(F)cc1 [BAY-784]
0: Fibroblast; [1] | Fibroblast; [3] | U2OS; [1] | U2OS; [10] | U2OS; [4] | U2OS; [6] | U2OS; [8] | HEK-293T; [1] | HEK-293T; [5] | HEK-293T; [7] | HEK-293T; [9]
1: Fibroblast; [4] | Fibroblast; [7] | Fibroblast; [8] | U2OS; [3] | U2OS; [5] | U2OS; [9] | HEK-293T; [3] | HEK-293T; [4] | HEK-293T; [6] | HEK-293T; [8]

O=C(Nc1cnc(Oc2ccc(F)cc2)nc1)N1CCc2ncccc2[C@@H]1c1ccc(F)cc1 [BAY-899]
1: Fibroblast; [3] | Fibroblast; [4] | Fibroblast; [6] | Fibroblast; [8] | U2OS; [4] | U2OS; [6] | U2OS; [9] | HEK-293T; [10]
0: Fibroblast; [1] | U2OS; [1] | U2OS; [8] | HEK-293T; [1] | HEK-293T; [3] | HEK-293T; [4] | HEK-293T; [6] | HEK-293T; [8]

C[C@@]1(Cc2ccc(C#N)cc2)C(=O)N(c2cc(Cl)cc(Cl)c2)c2ncc(C(=O)NC3(c4nc(C5CCC5)no4)CC3)n21 [BI 9446]
1: U2OS; [4] | U2OS; [6] | U2OS; [8]
0: Fibroblast; [1] | Fibroblast; [3] | Fibroblast; [4] | Fibroblast; [6] | Fibroblast; [8] | U2OS; [1] | U2OS; [10] | U2OS; [5] | U2OS; [7] | U2OS; [9] | HEK-293T; [1] | HEK-293T; [3] | HEK-293T; [4] | HEK-293T; [6] | HEK-293T; [8]

O=c1nc(-c2ccccn2)sc2ccccc12 [BTZO-1]
1: Fibroblast; [1] | Fibroblast; [10] | Fibroblast; [5] | Fibroblast; [7] | Fibroblast; [9] | U2OS; [3] | U2OS; [5] | U2OS; [6] | U2OS; [8] | HEK-293T; [2] | HEK-293T; [3] | HEK-293T; [4] | HEK-293T; [6] | HEK-293T; [8]
0: Fibroblast; [2] | Fibroblast; [3] | Fibroblast; [4] | Fibroblast; [6] | Fibroblast; [8] | U2OS; [1] | U2OS; [4] | U2OS; [7] | U2OS; [9] | HEK-293T; [1]

CN([C@@H]1CCc2c(CC(=O)O)c3cc(S(C)(=O)=O)ccc3n2C1)S(=O)(=O)c1ccc(F)cc1 [CRTH2-negative-control]
0: Fibroblast; [1] | Fibroblast; [10] | Fibroblast; [5] | Fibroblast; [7] | Fibroblast; [9] | U2OS; [1] | U2OS; [3] | U2OS; [5] | U2OS; [6] | U2OS; [8] | HEK-293T; [2] | HEK-293T; [3] | HEK-293T; [4] | HEK-293T; [6] | HEK-293T; [8]
1: Fibroblast; [4] | Fibroblast; [6] | Fibroblast; [8] | U2OS; [4] | U2OS; [7] | HEK-293T; [1] | HEK-293T; [10] | HEK-293T; [5] | HEK-293T; [7] | HEK-293T; [9]

Cc1cccc([C@H](C)c2c[nH]cn2)c1C.Cl [DEXMEDETOMIDINE HYDROCHLORIDE]
0: Fibroblast; [1] | U2OS; [1] | U2OS; [10] | U2OS; [6] | HEK-293T; [1] | HEK-293T; [3] | HEK-293T; [4] | HEK-293T; [6] | HEK-293T; [8]
1: Fibroblast; [5] | Fibroblast; [7] | Fibroblast; [8] | U2OS; [4] | U2OS; [7] | U2OS; [8]

N#CC(Cc1ccc(O)cc1)c1ccc(O)cc1 (stereo not given) [DIARYLPROPIONITRILE]
1: U2OS; [4] | U2OS; [8] | HEK-293T; [1] | HEK-293T; [3] | HEK-293T; [5] | HEK-293T; [7] | HEK-293T; [9]
0: Fibroblast; [1] | Fibroblast; [3] | Fibroblast; [4] | Fibroblast; [6] | Fibroblast; [8] | U2OS; [10] | U2OS; [5] | U2OS; [6] | U2OS; [9] | HEK-293T; [2] | HEK-293T; [4] | HEK-293T; [6] | HEK-293T; [8]

O=C(O)C[C@H]1CCc2c1[nH]c1ccc(OCc3ccc(C4CCCC4)c(C(F)(F)F)c3)cc21 [ETRASIMOD]
1: Fibroblast; [2] | Fibroblast; [3] | Fibroblast; [4] | Fibroblast; [6] | Fibroblast; [9] | U2OS; [2] | U2OS; [5] | U2OS; [6] | U2OS; [8] | HEK-293T; [3] | HEK-293T; [5] | HEK-293T; [7]
0: Fibroblast; [1] | Fibroblast; [10] | Fibroblast; [8] | U2OS; [1] | U2OS; [10] | U2OS; [4] | HEK-293T; [1] | HEK-293T; [4] | HEK-293T; [6] | HEK-293T; [8]

CC(=O)OCC(=O)[C@@]1(O)CC[C@H]2[C@@H]3CCC4=CC(=O)CC[C@]4(C)[C@@]3(F)[C@@H](O)C[C@@]21C [FLUDROCORTISONE ACETATE]
1: Fibroblast; [4] | Fibroblast; [6] | Fibroblast; [8] | U2OS; [2] | U2OS; [5] | U2OS; [6] | U2OS; [8] | HEK-293T; [3] | HEK-293T; [4] | HEK-293T; [6] | HEK-293T; [8]
0: Fibroblast; [1] | Fibroblast; [3] | U2OS; [1] | U2OS; [10] | HEK-293T; [1] | HEK-293T; [10] | HEK-293T; [9]

CNCCC(Oc1ccc(C(F)(F)F)cc1)c1ccccc1.Cl (stereo not given) [FLUOXETINE HYDROCHLORIDE]
0: Fibroblast; [1] | Fibroblast; [10] | Fibroblast; [4] | Fibroblast; [7] | Fibroblast; [9] | HEK-293T; [2] | HEK-293T; [3] | HEK-293T; [4] | HEK-293T; [6] | HEK-293T; [8]
1: Fibroblast; [3] | Fibroblast; [6] | Fibroblast; [8] | U2OS; [10] | U2OS; [5] | U2OS; [6] | U2OS; [8] | HEK-293T; [10] | HEK-293T; [5]
